Source: patent EP0565593B1, “REDUCING PESTICIDAL INTERACTIONS IN CROPS” (priority 1990, dated 1992)
Where “and” joins values, the source holds several entries; their conditions need not be identical. Equal entries are not always repeated. Where two headings read alike, the source gives them in different places.

Tests used:
[1] = system: Giant foxtail (GIFT); assay: whole plant or invertebrate; type: in vivo; settings: in vivo
[2] = system: Corn; assay: Greenhouse test Procedure VII: biocide and antidote in furrow, herbicide POE (Examples 39-42, 48-50, 56-58; Tables 38-41, 47-49, 55-57); type: in vivo; settings: for % Inhibition Corn: C (COUNTER) + antidote in furrow
From the text: This procedure describes interaction among herbicide, biocide and antidote when the biocide and the antidote is applied to a soil furrow containing crop seed before emergence of the crop and the herbicide is applied after emergence of the crop and weeds. The soil and planting depth was described in Procedure IV. The containers for comparison, the biocide and antidote applications to soil furrows were described in Procedure VI. In this procedure, the seed beds of the first, second, third and fourth containers are covered by soil layers not treated with herbicide. The containers were then placed on a bench in a greenhouse and subirrigated as required for the duration of the test. The herbicide, dispersed or dissolved in water containing 0.25% v/v nonionic surfactant (X-77) was applied by a track sprayer (187 L/ha) to the emerged plants of the second, third and fourth containers about five days after planting. All treatments were run in duplicate. Plant response was observed according to Procedure IV. Variations in this procedure will be noted in the examples.
In this example, tests were conducted according to Procedure VII for the POE application of the herbicides following in-furrow application of COUNTER® 15G insecticide (BIOCIDE No. 1) and the antidote on the pre-planted test seeds. In this test, the herbicides were Nos. 1 (MON-12000), 10 (ALLY®) and #4 (HARMONY®) and the Antidote Nos. 1, 7, 12 and 33.
These in-furrow treatments comprised a 50-50 mix of blended granules of COUNTER with and without 5G granular antidotes at 7.4 + 7.4 mg/cm or 1.1 + 0.37 mg active ingredient (a.i.)/cm. The in-furrow initiation of the test was followed five (5) days later with POE application of the herbicides; observations were made eight (8) days later.
In another test, conducted simultaneously with that in Example 39, Herbicide Nos. 5 (chlorimuron ethyl, active ingredient in CLASSIC® herbicide), 7 (nicosulfuron, active ingredient in ACCENT® herbicide) and 15 (tribenuron methyl, active ingredient in EXPRESS® herbicide) were substituted as test herbicides.
In this example, using the same procedure as above, the following imidazolinone herbicides were used with the same insecticide/biocide and antidotes as above: Herb. No. 16 (imazaquin, a.i. in SCEPTER® herbicide; No. 19 (Code No. AC 222293, a.i. in ASSERT® herbicide); No. 6 (imazethapyr, a.i. in PURSUIT® herbicide and No. 18 (imazapyr, a.i. in ARSENAL® herbicide). Test results are shown in Table 40. Table 40
This example describes the testing of the above antidotes used in Examples 39-41 to safen negative synergy interactions between representative species of the class of herbicidal compounds identified as azolopyrimidine sulfonamides and COUNTER 15G. The same procedure used in the above examples was conducted in this test. In this test, the herbicides were formulated in 17% acetone and 83% water with 0.25% v/v X-77 surfactant.
In these tests (according to Procedure VII) the safeners in solution with acetone were applied in furrow to the soil, followed by COUNTER 15G granules at 227 g/305 m (8 oz./1000'). Applications were made in alternate rows in two separate 13.7 cm x 27.7 cm pans containing Dupo silt loam. Pans were seeded 1.3 cm deep, placed on benches in a greenhouse and subirrigated. BEACON was formulated in water with 0.25% v/v X-77 surfactant and applied by track sprayer at a rate of 187 L/Ha (20 gal/A). Weed species in this test were giant foxtail, shattercane and velvetleaf. The herbicide was applied five (5) days after PPI initiation and observation of test result (shown in Table 47) made eight (8) days later.
In Table 47 COUNTER 15G is abbreviated as "C" and the antidotes as "A" in the column headings which indicate the "C + A" ratios used in the tests. Control and COUNTER treatments are average of four (4) replications and COUNTER + Antidote treatments, average of 2 reps. […]

[3] = system: Velvetleaf (VELE); type: in vivo, Abutilon theophrasti
[4] = system: Shattercane (SHCA); type: in vivo
[5] = system: Corn
[6] = system: Corn; settings: MON-12000 + OP insecticides; Examples 20-23
[7] = Antidote 4.48 + Biocide No. 1 8.96 Kg/Ha PPI, Herb. No. 8 0.07, 5 DAP, before herbicide application
[8] = Antidote 4.48 + Biocide No. 1 8.96 Kg/Ha PPI, Herb. No. 8 0.07 POE, 13 DAP
[9] = Antidote 4.48 + Biocide No. 1 8.96 Kg/Ha PPI, Herbicide No. 7 0.28 POE, 13 days after planting
[10] = Herb. […], 5 DAP, before herbicide application
[11] = Table 14: Herbicide No. 7 (ACCENT) 0.84 Kg/Ha POE + Biocide No. 2 8.96 Kg/Ha PPI + antidote 4.48 Kg/Ha PPI, 13 days after planting, 8 days after herbicide
[12] = […], 13 days after planting, 8 days after herbicide
[13] = […], observed 10 days after herbicide application
[14] = Antidote 8.96 + Biocide No. 1 8.96 Kg/Ha PPI, Herb. No. 8 0.07, 5 DAP, before herbicide application
[15] = Antidote 8.96 + Biocide No. 1 8.96 Kg/Ha PPI, Herb. No. 8 0.07 POE, 13 DAP
[16] = Antidote 8.96 + Biocide No. 1 8.96 Kg/Ha PPI, Herbicide No. 7 0.28 POE, 13 days after planting
[17] = Table 14: Herbicide No. 7 (ACCENT) 0.84 Kg/Ha POE + Biocide No. 2 8.96 Kg/Ha PPI + antidote 8.96 Kg/Ha PPI, 13 days after planting, 8 days after herbicide

CC1CN(C(=O)C(Cl)Cl)C(C)(C)O1 (stereo not drawn) [compound 8]
% Inhibition GIFT [1]: 45% and 50% and 85% and 65% and 70% and 90% and 60%
% Inhibition Corn ([2]; C:A Ratio 20, ACCENT 0.56 Kg/Ha POE): 10%
% Inhibition Corn ([2]; C:A Ratio 20, BEACON 0.28 Kg/Ha POE): 0%
% Inhibition Corn ([2]; C:A Ratio 40, ACCENT 0.56 Kg/Ha POE): 15%
% Inhibition Corn ([2]; C:A Ratio 40, BEACON 0.28 Kg/Ha POE): 0%
% Inhibition Corn ([2]; C:A Ratio 80, ACCENT 0.56 Kg/Ha POE): 20%
% Inhibition Corn ([2]; C:A Ratio 80, BEACON 0.28 Kg/Ha POE): 5%
% Inhibition Corn ([2]; C:A Ratio 160, ACCENT 0.56 Kg/Ha POE): 40%
% Inhibition Corn ([2]; C:A Ratio 160, BEACON 0.28 Kg/Ha POE): 15%
% Corn Inhibition C:A Ratios 5 ([2]; Herbicide No. 8 0.28 Kg/Ha POE + COUNTER 15G 227 g/305 m + antidote in furrow, C:A ratio 5): 3%
% Corn Inhibition C:A Ratios 10 ([2]; Herbicide No. 8 0.28 Kg/Ha POE + COUNTER 15G 227 g/305 m + antidote in furrow, C:A ratio 10): 5%
% Corn Inhibition C:A Ratios 20 ([2]; Herbicide No. 8 0.28 Kg/Ha POE + COUNTER 15G 227 g/305 m + antidote in furrow, C:A ratio 20): 5%
% Corn Inhibition C:A Ratios 40 ([2]; Herbicide No. 8 0.28 Kg/Ha POE + COUNTER 15G 227 g/305 m + antidote in furrow, C:A ratio 40): 3%
% Corn Inhibition C:A Ratios 80 ([2]; Herbicide No. 8 0.28 Kg/Ha POE + COUNTER 15G 227 g/305 m + antidote in furrow, C:A ratio 80): 5%
% Corn Inhibition C:A Ratios 160 ([2]; Herbicide No. 8 0.28 Kg/Ha POE + COUNTER 15G 227 g/305 m + antidote in furrow, C:A ratio 160): 10%
% Inhibition 5 DAP VELE [3, 7]: 10%
% Inhibition 13 DAP VELE [3, 8]: 85%
% Inhibition VELE [3, 9]: 65%
% Inhibition 5 DAP VELE [3, 10]: 0%
% Inhibition VELE [3, 11]: 70%
% Inhibition VELE [3, 12]: 70%
% Inhibition VELE [3, 13]: 75%
% Inhibition 5 DAP VELE ([3]; in vivo): 0%
% Inhibition 13 DAP VELE ([3]; in vivo): 90%
% Inhibition 5 DAP SHCA [4, 7]: 0%
% Inhibition 13 DAP SHCA [4, 8]: 90%
% Inhibition SHCA [4, 9]: 60%
% Inhibition SHCA [4, 11]: 85%
% Inhibition SHCA [4, 12]: 90%
% Inhibition SHCA [4, 13]: 60%
% Inhibition 5 DAP SHCA ([4]; in vivo): 30%
% Inhibition 13 DAP SHCA ([4]; in vivo): 80%
% Inhibition 5 DAP Corn [5, 7]: 20%
% Inhibition 13 DAP Corn [5, 8]: 35%
% Inhibition Corn [5, 9]: 35%
% Inhibition 5 DAP Corn [5, 10]: 0%
% Inhibition Corn [5, 11]: 20%
% Inhibition Corn [5, 12]: 20%
% Inhibition Corn [5, 13]: 45%
% Inhibition 5 DAP Corn ([5]; in vivo): 20%
% Inhibition 13 DAP Corn ([5]; in vivo): 30%
% Inhibition Corn ([5]; in vivo): 30% and 55%

COc1ccc(OC)c(C(=O)CC2OC(=O)c3ccccc32)c1 (stereo not drawn) [compound 77]
% Inhibition GIFT [1]: 60% and 95% and 85% and 80% and 70%
% Inhibition 5 DAP VELE [3, 14]: 0%
% Inhibition 13 DAP VELE [3, 15]: 90%
% Inhibition VELE [3, 16]: 65%
% Inhibition 5 DAP VELE [3, 10]: 0%
% Inhibition VELE [3, 17]: 70%
% Inhibition VELE [3, 12]: 70%
% Inhibition VELE [3, 13]: 80%
% Inhibition 5 DAP VELE ([3]; in vivo): 20%
% Inhibition 13 DAP VELE ([3]; in vivo): 95%
% Inhibition 5 DAP SHCA [4, 14]: 10%
% Inhibition 13 DAP SHCA [4, 15]: 85%
% Inhibition SHCA [4, 16]: 70%
% Inhibition SHCA [4, 17]: 85%
% Inhibition SHCA [4, 12]: 95%
% Inhibition SHCA [4, 13]: 60%
% Inhibition 5 DAP SHCA ([4]; in vivo): 60%
% Inhibition 13 DAP SHCA ([4]; in vivo): 90%
% Inhibition SHCA ([4]; in vivo): 85% and 55% and 65% and 45%
% Inhibition 5 DAP Corn [5, 14]: 0%
% Inhibition 13 DAP Corn [5, 15]: 75%
% Inhibition Corn [5, 16]: 25%
% Inhibition 5 DAP Corn [5, 10]: 0%
% Inhibition Corn [5, 17]: 25%
% Inhibition Corn [5, 12]: 15%
% Inhibition Corn [5, 13]: 20%
% Inhibition 5 DAP Corn ([5]; in vivo): 15%
% Inhibition 13 DAP Corn ([5]; in vivo): 65%
activity in reducing corn injury ([5]; primisulfuron POE + biocides PPI, Tables 8-10): either inactive or weakly active
safening activity [6]: low or nil
